Read-outs that look alike come from different tables or passages of the source.
Experiments:
[1] = Phase 1 first-in-human study (NCT04178902): pharmacokinetics; type: in vivo; conditions: for AUC(0-inf) / AUC(0-t) / clearance / Cmax / Tmax / half-life: plasma; for Cmax: read-out: Cmax; for Tmax: read-out: Tmax (converted)
Source text: Other eligibility criteria included: Eastern Cooperative Oncology Group performance status ≤2, measurable disease as defined by International Myeloma Working Group (IMWG) consensus criteria, an echocardiogram with an ejection fraction ≥50%, and adequate hematologic, hepatic, and renal function. […] Safety evaluations included, but were not limited to, adverse event (AE) monitoring, physical examinations, vital sign measurements, electrocardiogram (ECG), cardiac enzyme monitoring, and clinical laboratory testing (hematology and chemistry) as a measure of safety and tolerability for the entire study duration. Parameters used to determine PK included maximum observed plasma concentration (Cmax), terminal elimination half-life (t1/2), area under the plasma concentration-time curve (AUC) from time 0 to time of last measurable concentration (AUCt), AUC from time 0 to infinity (AUC0-∞), and clearance using non-compartmental methods. […] Preliminary efficacy endpoints were overall response rate (ORR), clinical benefit rate (CBR), and duration of response (DOR) as evaluated per adapted IMWG[36] criteria for MM and per adapted International Working Group (IWG)[37] and European Leukemia Net (ELN)[38] criteria for AML. […]

[2] = tested on: OCI-AML2 xenografts; assay: OCI-AML2 xenograft efficacy (tumor volume, body weight); conditions: for tumor response: for 20 days post-treatment
Protocol: All animal studies were conducted in accordance with the guidelines approved by the Institutional Animal Care and Use Committees of AbbVie. The research protocol was approved by In Vivo Pharmacology at AbbVie prior to study initiation but was not publicly registered or disclosed. Female C.B-17 SCID-beige mice (AMO-1, OPM-2, NCI-H929, and OCI-AML2 xenografts) and female NSG mice (MV4-11-Red.Fluc systemic) were purchased from Charles River Laboratories (Wilmington, MA). Animals were housed in a light cycle-controlled room with HEPA filtration at 22 °C. Animals had nesting and climbing cage topper as the primary environmental enrichment. Animals were inoculated subcutaneously in the right flank with 5 × 10^6 (AMO-1, OPM-2, NCI-H929, and OCI-AML2) or intravenous (IV) with 5 × 10^6 (MV4-11-Red.Fluc). The inoculation volume (0.2 mL) comprised a 50:50 mixture of cells in growth media and Matrigel (BD Biosciences) for subcutaneous injections and 100% phosphate-buffered saline for IV administration. […] Electronic calipers were used to measure the length and width of each tumor 2 to 3 times per week. Tumor volume was estimated by applying the following equation: volume = length × width^2/2. All groups remained blinded during measurements and dosing; only veterinary staff were aware of group identity. When tumors reached approximately 200 mm^3, mice were randomized by match and distributed into treatment and control groups. All xenograft trials were conducted using 5 to 10 mice per group, and all mice were ear tagged and monitored individually throughout the studies.
For combination studies, all compounds were administered within 30 min of each other.
The tumor growth delay (TGD) percentage was determined as the percentage increase of the median time period for the treatment group to reach an arbitrary tumor volume of 1000 mm^3 relative to the vehicle control group. […] A power analysis was conducted using historical data to determine the number of animals required to yield significance of 0.05 at a 30% difference. There were no animals excluded. Data from experiments in vivo were analyzed using the student’s t-test for TGI values and the Mann–Whitney U test for TGD using Excel and GraphPad Prism. Fisher’s exact test was used to probe significance of differences in response frequency.

[3] = human, intravenous, 0.32 mg/kg, Cycle 1 day 1, dose level 0.32 mg/kg (only half of this dose given), N=2, individual values
[4] = human, intravenous, 0.53 mg/kg, Cycle 1 day 1, dose level 0.53 mg/kg (only half of this dose given), N=3
[5] = human, intravenous, 0.53 mg/kg, Cycle 1 day 15, 0.53 mg/kg, N=2, individual values
[6] = combined with venetoclax and 5-azacitidine

Cc1c(Cl)c2c(Cl)c(C)c1-c1c(-c3ccc(F)cc3)sc3ncnc(c13)O[C@@H](C(=O)O)Cc1cc(ccc1OCc1ccnc(-c3ccc(OC[C@H]4COCCO4)cc3)n1)OC[C@@H](CN1CCN(C)CC1)O2 [ABBV-467]
concentration at […] ([1]; human, in vivo, 0.265 mg/kg, Cycle 1 Day 1, DOSE_MGKG 0.265, cohort 3, PKTIME 2.5, read-out: CONC_NGML): 8.88 ng/mL | concentration at […] ([1]; human, in vivo, 0.265 mg/kg, Cycle 1 Day 1, DOSE_MGKG 0.265, cohort 3, PKTIME 8.5, read-out: CONC_NGML): 0 ng/mL | concentration at […] ([1]; human, in vivo, 0.265 mg/kg, Cycle 1 Day 1, DOSE_MGKG 0.265, cohort 3, PKTIME 24.5, read-out: CONC_NGML): 0 ng/mL | concentration at 0 h ([1]; human, in vivo, 0.32 mg/kg, Cycle 1 Day 15, DOSE_MGKG 0.32, cohort 2, PKTIME 0, read-out: CONC_NGML): 0 ng/mL | concentration at 20 min ([1]; human, in vivo, 0.32 mg/kg, Cycle 1 Day 15, DOSE_MGKG 0.32, cohort 2, PKTIME 0.333333, read-out: CONC_NGML): 646 ng/mL | concentration at […] ([1]; human, in vivo, 0.32 mg/kg, Cycle 1 Day 15, DOSE_MGKG 0.32, cohort 2, PKTIME 8.5, read-out: CONC_NGML): 0 ng/mL | concentration at […] ([1]; human, in vivo, 0.32 mg/kg, Cycle 1 Day 15, DOSE_MGKG 0.32, cohort 2, PKTIME 24.5, read-out: CONC_NGML): 0 ng/mL | concentration at 10 min ([1]; human, in vivo, 0.53 mg/kg, Cycle 1 Day 15, DOSE_MGKG 0.53, cohort 3, PKTIME 0.166667, read-out: CONC_NGML): 731 ng/mL | concentration at 20 min ([1]; human, in vivo, 0.53 mg/kg, Cycle 1 Day 15, DOSE_MGKG 0.53, cohort 3, PKTIME 0.333333, read-out: CONC_NGML): 1370 ng/mL | concentration at 0.5 h ([1]; human, in vivo, 0.53 mg/kg, Cycle 1 Day 15, DOSE_MGKG 0.53, cohort 3, PKTIME 0.5, read-out: CONC_NGML): 1860 ng/mL | concentration at 1.5 h ([1]; human, in vivo, 0.53 mg/kg, Cycle 1 Day 15, DOSE_MGKG 0.53, cohort 3, PKTIME 1.5, read-out: CONC_NGML): 87.9 ng/mL | concentration at […] ([1]; human, in vivo, 0.53 mg/kg, Cycle 1 Day 15, DOSE_MGKG 0.53, cohort 3, PKTIME 2.5, read-out: CONC_NGML): 27.3 ng/mL | concentration at 4.5 h ([1]; human, in vivo, 0.53 mg/kg, Cycle 1 Day 15, DOSE_MGKG 0.53, cohort 3, PKTIME 4.5, read-out: CONC_NGML): 11.3 ng/mL | concentration at […] ([1]; human, in vivo, 0.53 mg/kg, Cycle 1 Day 15, DOSE_MGKG 0.53, cohort 3, PKTIME 8.5, read-out: CONC_NGML): 0 ng/mL | concentration at […] ([1]; human, in vivo, 0.53 mg/kg, Cycle 1 Day 15, DOSE_MGKG 0.53, cohort 3, PKTIME 24.5, read-out: CONC_NGML): 0 ng/mL | AUC(0-inf) [1, 3]: 167 ng·h/mL | AUC(0-t) [1, 3]: 159 ng·h/mL | clearance [1, 3]: 15.9 mL/min/kg | Cmax [1, 3]: 474 ng/mL | Tmax [1, 3]: 20 min | half-life ([1]; human, intravenous, 0.32 mg/kg, Cycle 1 day 1, dose level 0.32 mg/kg (only half of this dose given), N=2, individual values, read-out: t1/2): 50.8 min | AUC(0-inf) [1, 4]: 435 ng·h/mL | AUC(0-t) [1, 4]: 428 ng·h/mL | clearance [1, 4]: 10.2 mL/min/kg | half-life ([1]; human, intravenous, 0.53 mg/kg, Cycle 1 day 1, dose level 0.53 mg/kg (only half of this dose given), N=3, harmonic mean (pseudo SD), read-out: t1/2): 55.5 min | Tmax ([1]; human, intravenous, 0.53 mg/kg, Cycle 1 day 1, dose level 0.53 mg/kg (only half of this dose given), N=3, median): 30 min | AUC(0-inf) [1, 5]: 933 ng·h/mL | AUC(0-t) [1, 5]: 921 ng·h/mL | clearance [1, 5]: 9.47 mL/min/kg | Cmax [1, 5]: 1510 ng/mL | Tmax [1, 5]: 30 min | half-life ([1]; human, intravenous, 0.53 mg/kg, Cycle 1 day 15, 0.53 mg/kg, N=2, individual values, read-out: t1/2): 63.3 min | half-life ([1]; human, intravenous, […], Cycle 1 day 1, dose level […] (only half of this dose given), N=3, harmonic mean (pseudo SD), read-out: t1/2): 16.1 min | Tmax ([1]; human, intravenous, […], Cycle 1 day 1, dose level […] (only half of this dose given), N=3, median): 30 min | clearance ([1]; human, intravenous, […], Cycle 1 day 15, […], N=3): 10.4 mL/min/kg | Tmax ([1]; human, intravenous, […], Cycle 1 day 15, […], N=3, median): 30 min | half-life ([1]; human, iv, patients, 30-minute IV infusion, 0.08–0.53 mg/kg, read-out: average half-life): < 60 min | time after completion of infusion at which circulating plasma concentrations were eliminated ([1]; patients, 30-minute IV infusion): 4 h | TGD ([2]; combined with venetoclax): > 878% | TGI ([2]; combined with venetoclax): 99% | TGD [2, 6]: > 878% | TGI [2, 6]: 99% | tumor response [2, 6]: complete tumor regression in all tumors | tumor response ([2]; combined with venetoclax): complete tumor regression in all tumors | animals remaining tumor free at 120 days post-inoculation ([2]; doublet (with venetoclax)): 62.5% | sensitivity of OCI-AML2 tumors ([2]; in combination with 5-azacitidine): resistant | sensitivity of OCI-AML2 tumors ([2]; monotherapy): resistant | animals remaining tumor free at 120 days post-inoculation ([2]; triplet (with venetoclax and 5-azacitidine)): 62.5%
